This passage reports IC50 results from US12180185B2, “Compound as protein kinase inhibitor, and pharmaceutical composition comprising thereof” (HK INNO.N Corporation, priority 2018, dated 2024).

Molecules are shown by their SMILES.

JAK1, sequence (P23458 whole entry): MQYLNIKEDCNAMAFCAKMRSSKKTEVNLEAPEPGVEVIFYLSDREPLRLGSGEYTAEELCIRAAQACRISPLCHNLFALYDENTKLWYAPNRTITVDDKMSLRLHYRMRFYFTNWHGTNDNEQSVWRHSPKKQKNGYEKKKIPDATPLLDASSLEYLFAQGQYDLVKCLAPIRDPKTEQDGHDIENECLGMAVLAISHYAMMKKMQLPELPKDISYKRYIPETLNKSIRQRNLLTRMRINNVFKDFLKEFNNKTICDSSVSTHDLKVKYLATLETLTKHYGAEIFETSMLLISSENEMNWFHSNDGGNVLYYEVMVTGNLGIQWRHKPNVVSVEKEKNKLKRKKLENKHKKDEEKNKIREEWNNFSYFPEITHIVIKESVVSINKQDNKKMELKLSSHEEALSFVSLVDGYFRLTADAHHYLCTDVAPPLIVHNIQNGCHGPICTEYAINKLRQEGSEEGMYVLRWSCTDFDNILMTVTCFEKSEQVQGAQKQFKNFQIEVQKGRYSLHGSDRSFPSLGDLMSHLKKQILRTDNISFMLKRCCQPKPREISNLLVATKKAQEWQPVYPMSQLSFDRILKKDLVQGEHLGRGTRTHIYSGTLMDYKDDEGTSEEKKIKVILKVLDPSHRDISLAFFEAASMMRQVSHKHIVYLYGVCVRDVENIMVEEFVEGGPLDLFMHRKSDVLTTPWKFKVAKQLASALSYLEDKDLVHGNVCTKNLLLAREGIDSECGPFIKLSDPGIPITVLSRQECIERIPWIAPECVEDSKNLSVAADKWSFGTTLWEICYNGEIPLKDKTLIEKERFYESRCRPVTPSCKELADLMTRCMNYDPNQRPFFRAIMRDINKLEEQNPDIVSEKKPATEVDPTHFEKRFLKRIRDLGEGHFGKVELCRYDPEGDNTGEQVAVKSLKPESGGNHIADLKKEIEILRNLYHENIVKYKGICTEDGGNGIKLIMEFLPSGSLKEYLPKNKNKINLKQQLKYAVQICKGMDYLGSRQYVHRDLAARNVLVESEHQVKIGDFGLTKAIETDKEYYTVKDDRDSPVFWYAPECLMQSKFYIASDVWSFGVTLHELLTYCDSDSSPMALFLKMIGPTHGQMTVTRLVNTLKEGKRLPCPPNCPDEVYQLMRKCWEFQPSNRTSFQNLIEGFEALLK

This assay deals with JAK1 (Homo sapiens (Human), UniProt P23458). Briefly: Analysis of JAK1 activity inhibitory capacity (ADP-Glo Kinase assay). Format: biochemical. To be noted: JAK1 enzyme, ATP 250 uM, IRS-1tide substrate, 30° C. 40 minutes, luminescence. Here is the method:
Experimental Example 1: Analysis of JAK1 activity inhibitory capacity (ADP-Glo™ Kinase assay)
An inhibitory effect of the inventive compound on JAK was identified as follows.
A control material and a test material were prepared through dilution at each concentration by using DMSO. At the same time, ATP (250 uM) and JAK's substrate (JAK1, IRS-1tide 40 ng/mL) were prepared through dilution in kinase buffer (40 mM Tris-HCl pH 7.5, 20 mM MgCl2, 0.5 mg/mL BSA, 50 uM DTT).
A test drug for each concentration, the substrate, the ATP and JAK enzymes were mixed in an eppendorf tube, and then subjected to reaction in an incubator at 30° C. for 40 minutes.
ADP-Glo ? reagent included in ADP-Glo™ Kinase Enzyme System (Promega, USA, V9571) was added to each eppendorf tube, and then subjected to reaction in the incubator at 30° C. for 40 minutes.
A kinase detection reagent included in the ADP-Glo™ Kinase Enzyme System was inserted into the eppendorf tube, after which luminescence was measured by using Wallac Victor 2TM with an integration time set to 1 second, such that an inhibitory capacity of the test material on JAKs phosphorylation was analyzed. A concentration of the compound, at which JAK enzyme activity inhibition occurs 50% compared to the control group, was determined as IC50 (nM) of an inhibitor.
(In general: In ADP-Glo the light output rises with the ADP produced.)
A word on the IC50: it is the concentration that gives 50% inhibition. Read a low IC50 as inhibition by little substance. Regarding `Cc1cc(NC(=O)c2cnc(C)cn2)c2[nH]cc(-c3ccnc(NC(=O)C4CC4)c3)c2c1` [Example 16, N-(3-(2-(cyclopropanecarboxamido)pyridin-4-yl)-5-methyl-1H-indol-7-yl)-5-methylpyrazine-2-carboxamide], the concentration for half-maximal inhibition (IC50) was 0.1 to 1 µM. Consider `CC(C)=C(C#N)C(=O)Nc1cccc2c1ccn2-c1ccnc(NC(=O)C2CC2)c1` [Example 40, N-(4-(4-(2-cyano-3-methylbut-2-enamido)-1H-indol-1-yl)pyridin-2-yl)cyclopropanecarboxamide], for which the IC50 is 0.1 to 1 µM. To `CC(C)=C(C#N)C(=O)Nc1cccc2c(-c3ccnc(NC(=O)C4CC4)c3)cn(C)c12` [Example 26, N-(4-(7-(2-cyano-3-methylbut-2-enamido)-1-methyl-1H-indol-3-yl)pyridin-2-yl)cyclopropanecarboxamide] belongs over 1 µM; to `O=C(Nc1cccc2c1ccn2-c1ccnc(NC(=O)C2CC2)c1)c1ccnc(F)c1F` [Example 53, N-(1-(2-(cyclopropanecarboxamido)pyridin-4-yl)-1H-indol-4-yl)-2,3-difluoroisonicotinamide], 0.1 to 1 µM.

Consider `O=C(Nc1cccc2c(-c3ccnc(NC(=O)C4CC4)c3)c[nH]c12)c1cccc(F)c1` [Example 38, N-(3-(2-(cyclopropanecarboxamido)pyridin-4-yl)-1H-indol-7-yl)-3-fluorobenzamide], for which the 50% inhibitory concentration (IC50) lay in the range of 0.1 to 1 µM. To `COc1ccc(C(=O)Nc2cccc3c2ccn3-c2ccnc(NC(=O)C3CC3)c2)cc1F` [Example 56, N-(1-(2-(cyclopropanecarboxamido)pyridin-4-yl)-1H-indol-4-yl)-3-fluoro-4-methoxybenzamide] belongs 0.1 to 1 µM; to `COc1cc(-c2c[nH]c3c(NC(=O)CC#N)cccc23)cc(NC(=O)C2CC2)n1` [Example 20, N-(4-(7-(2-cyanoacetamido)-1H-indol-3-yl)-6-methoxypyridin-2-yl)cyclopropanecarboxamide], over 1 µM; to `N#CC1(CC(=O)Nc2cccc3c2ccn3-c2ccnc(NC(=O)C3CC3)c2)CC1` [Example 58, N-(4-(4-(2-(1-cyanocyclopropyl)acetamido)-1H-indol-1-yl)pyridin-2-yl)cyclopropane carboxamide], 0.1 to 1 µM. In turn, `N#C/C(=C\c1cccs1)C(=O)Nc1cccc2c(-c3ccnc(NC(=O)C4CC4)c3)c[nH]c12` [Example 25, (E)-N-(4-(7-(2-cyano-3-(thiophen-2-yl)acrylamido)-1H-indol-3-yl)pyridin-2-yl)cyclopropanecarboxamide] displayed an IC50 of 0.1 to 1 µM. To `O=C(Nc1cc(-c2c[nH]c3c(NC(=O)C4CCCCC4)cccc23)ccn1)C1CC1` [Example 3, N-(3-(2-(cyclopropanecarboxamido)pyridin-4-yl)-1H-indol-7-yl)cyclohexanecarboxamide] belongs 0.1 to 1 µM; to `CCCC(=O)Nc1cccc2c(-c3ccnc(NC(=O)C4CC4)c3)c[nH]c12` [Example 7, N-(4-(7-butyramido-1H-indol-3-yl)pyridin-2-yl)cyclopropanecarboxamide], under 0.1 µM. To `O=C(Nc1cccc2c(-c3ccnc(NC(=O)C4CC4)c3)c[nH]c12)c1cc[nH]n1` [Example 33, N-(3-(2-(cyclopropanecarboxamido)pyridin-4-yl)-1H-indol-7-yl)-1H-pyrazole-3-carboxamide] belongs 0.1 to 1 µM; to `O=C(Nc1cccc2c(-c3ccnc(NC(=O)C4CC4)c3)c[nH]c12)c1nc(C(F)(F)F)cs1` [Example 21, N-(3-(2-(cyclopropanecarboxamido)pyridin-4-yl)-1H-indol-7-yl)-4-(trifluoromethyl)thiazole-2-carboxamide], 0.1 to 1 µM; to `CC(C)=C(C)C(=O)Nc1cccc2c1ccn2-c1ccnc(NC(=O)C2CC2)c1` [Example 60, N-(4-(4-(2,3-dimethylbut-2-enamido)-1H-indol-1-yl)pyridin-2-yl)cyclopropanecarboxamide], over 1 µM. Turning to `CC(C#N)C(=O)Nc1cccc2c(-c3ccnc(NC(=O)C4CC4)c3)c[nH]c12` (stereo not drawn) [Example 14, N-(4-(7-(2-cyanopropanamido)-1H-indol-3-yl)pyridin-2-yl)cyclopropanecarboxamide], the IC50 is under 0.1 µM.

`CC(C)=C(C#N)C(=O)Nc1cccc2c(-c3cc(C)nc(NC(=O)C4CC4)c3)c[nH]c12` [Example 9, N-(4-(7-(2-cyano-3-methylbut-2-enamido)-1H-indol-3-yl)-6-methylpyridin-2-yl)cyclopropanecarboxamide] showed a half-maximal inhibitory concentration (IC50) of over 1 µM. To `O=C(Nc1ccc(F)cc1F)Nc1cccc2c1ccn2-c1ccnc(NC(=O)C2CC2)c1` [Example 61, N-(4-(4-(3-(2,4-difluorophenyl)ureido)-1H-indol-1-yl)pyridin-2-yl)cyclopropanecarboxamide] belongs over 1 µM; to `Cc1cnc(NC(=O)C2CC2)cc1-c1c[nH]c2c(NC(=O)CC#N)cccc12` [Example 8, N-(4-(7-(2-cyanoacetamido)-1H-indol-3-yl)-5-methylpyridin-2-yl)cyclopropanecarboxamide], 0.1 to 1 µM; to `O=C(Nc1cccc2c(-c3ccnc(NC(=O)C4CC4)c3)c[nH]c12)c1cc(F)cc(F)c1` [Example 2, N-(3-(2-(cyclopropanecarboxamido)pyridin-4-yl)-1H-indol-7-yl)-3,5-difluorobenzamide], under 0.1 µM. As for `O=C(Nc1cccc2c(-c3ccnc(NC(=O)C4CC4)c3)c[nH]c12)c1cncc(F)c1` [Example 31, N-(3-(2-(cyclopropanecarboxamido)pyridin-4-yl)-1H-indol-7-yl)-5-fluoronicotinamide], the half-maximal inhibitory concentration (IC50) is under 0.1 µM. To `O=C(NCC(F)(F)F)Nc1cccc2c(-c3ccnc(NC(=O)C4CC4)c3)cn(C(=O)NCC(F)(F)F)c12` [Example 37, 3-(2-(cyclopropanecarboxamido)pyridin-4-yl)-N-(2,2,2-trifluoroethyl)-7-(3-(2,2,2-trifluoroethyl)ureido)-1H-indole-1-carboxamide] belongs over 1 µM. For `Cc1ccc(C(=O)Nc2cccc3c(-c4ccnc(NC(=O)C5CC5)c4)c[nH]c23)cn1` [Example 28, N-(3-(2-(cyclopropanecarboxamido)pyridin-4-yl)-1H-indol-7-yl)-6-methylnicotinamide], the IC50 is under 0.1 µM.

`Cc1ccncc1C(=O)Nc1cccc2c(-c3ccnc(NC(=O)C4CC4)c3)c[nH]c12` [Example 24, N-(3-(2-(cyclopropanecarboxamido)pyridin-4-yl)-1H-indol-7-yl)-4-methylnicotinamide] gave a concentration for half-maximal inhibition (IC50) of under 0.1 µM. Take `O=C(Nc1cccc2c1ccn2-c1ccnc(NC(=O)C2CC2)c1)c1ccnc(F)c1` [Example 52, N-(1-(2-(cyclopropanecarboxamido)pyridin-4-yl)-1H-indol-4-yl)-2-fluoroisonicotinamide]: the IC50 was over 1 µM. Take `CCc1c[nH]c(C(=O)Nc2cccc3c(-c4ccnc(NC(=O)C5CC5)c4)c[nH]c23)c1` [Example 36, N-(3-(2-(cyclopropanecarboxamido)pyridin-4-yl)-1H-indol-7-yl)-4-ethyl-1H-pyrrole-2-carboxamide]: the IC50 is 0.1 to 1 µM. To `O=C(Nc1cccc2c(-c3ccnc(NC(=O)C4CC4)c3)c[nH]c12)c1ccc(Cl)nc1` [Example 32, 6-chloro-N-(3-(2-(cyclopropanecarboxamido)pyridin-4-yl)-1H-indol-7-yl)nicotinamide] belongs 0.1 to 1 µM; to `CC(C)=C(C)C(=O)Nc1cccc2c(-c3ccnc(NC(=O)C4CC4)c3)c[nH]c12` [Example 17, N-(4-(7-(2,3-dimethylbut-2-enamido)-1H-indol-3-yl)pyridin-2-yl)cyclopropanecarboxamide], 0.1 to 1 µM. Turning to `N#C/C(=C/c1cccs1)C(=O)Nc1cccc2c1ccn2-c1ccnc(NC(=O)C2CC2)c1` [Example 46, N-(4-(4-(2-cyano-3-(thiophen-2-yl)acrylamido)-1H-indol-1-yl)pyridin-2-yl)cyclopropanecarboxamide], the IC50 is over 1 µM. To `N#C/C(=C\c1ccccc1)C(=O)Nc1cccc2c1ccn2-c1ccnc(NC(=O)C2CC2)c1` [Example 48, N-(4-(4-(2-cyano-3-phenylacrylamido)-1H-indol-1-yl)pyridin-2-yl)cyclopropanecarboxamide] belongs over 1 µM. `Cc1cc(C)cc(C(=O)Nc2cccc3c(-c4ccnc(NC(=O)C5CC5)c4)c[nH]c23)c1` [Example 5, N-(3-(2-(cyclopropanecarboxamido)pyridin-4-yl)-1H-indol-7-yl)-3,5-dimethylbenzamid] displayed a half-inhibitory concentration (IC50) of under 0.1 µM.

`N#C[C@H]1C[C@H]1C(=O)Nc1cccc2c1ccn2-c1ccnc(NC(=O)C2CC2)c1` [Example 57, (1R,2S)-2-cyano-N-(1-(2-(cyclopropanecarboxamido)pyridin-4-yl)-1H-indol-4-yl) cyclopropane-1-carboxamide] displayed an IC50 of under 0.1 µM. To `CC(C(=O)Nc1cccc2c(-c3ccnc(NC(=O)C4CC4)c3)c[nH]c12)N1CCN(C)CC1` (stereo not drawn) [Example 18, N-(4-(7-(2-(4-methylpiperazin-1-yl)propanamido)-1H-indol-3-yl)pyridin-2-yl)cyclopropanecarboxamide] belongs 0.1 to 1 µM; to `O=C(Nc1cccc2c(-c3ccnc(NC(=O)C4CC4)c3)c[nH]c12)c1ccc[nH]1` [Example 23, N-(3-(2-(cyclopropanecarboxamido)pyridin-4-yl)-1H-indol-7-yl)-1H-pyrrole-2-carboxamide], 0.1 to 1 µM.
